Experimental data reported in patent US20180312880A1, “NATURAL BROAD-SPECTRUM BIOCIDES” (CONSEJO SUPERIOR DE INVESTIGACIONES CIENTÍFICAS, priority 2015, published 2018).
≈ marks a conversion by molar mass, not a printed value. Marks after values point to notes of the source that are not given here.

How the values were obtained:
M. javanica = assay: Nematicidal activity on infective juveniles (J2); type: in vivo, Meloidogyne javanica; settings: J2, 72 h
Procedure: The nematode population (M. javanica) was maintained in growth chambers on tomato plants—Lycopersicon esculentum (var Marmande)—at 25° C. and a relative humidity of 70%. The tests were carried out according to the methodology described for M. javanica (Andres et al. 2012. Phytochem. Rev. 11, 371-390) using the biological stage of infective juveniles (J2). […] Each treatment was repeated four times and nematicidal activity was determined from the percentage of infective juveniles dead after 72 h. In cases in which a mortality rate of >99% was determined, dose-response experiments were carried out to determine LC50 and LC90.

Lactuca sativa = assay: Phytotoxicity test on seeds (germination, root growth); settings: for Germination (% C) 72 h / Growth (% C) Root: Lactuca sativa; for Germination (% C) 72 h / Growth (% C) Root / phytotoxic effects on germination and root development: in vivo; for Growth (% C) Root: 6 days
Procedure: […] 500 μl of distilled water and 10/5 seeds, were added to each well, and the plates were incubated in a growth chamber at 25° C., 70% relative humidity and a 16:08 L:D photoperiod. Seeds' germination was recorded for six days and the elongation of roots was assessed at the end of the experiment. The data were analysed by variance analysis (ANOVA).

M. persicae = assay: Aphid settlement inhibition on leaf disks (% SI); type: in vivo, Myzus persicae; settings: for M. persicae % SI: compounds at 50 μg/cm^2, 24 h; for EC50 (M. persicae): dose-response, settlement inhibition, limits in brackets
Procedure: (§1) Breeding and maintenance of the insects was carried out in a temperature-controlled chamber at 24±1° C., 60-70% relative humidity and a photoperiod of 16:8 hours (light:darkness). Larvae of S. littoralis were maintained on a semisynthetic diet (Poitut and Bues. 1970. Ann. Zool. Ecol. Anim. 2, 79-91) and aphids M. persicae and Rhopalosiphum padi on their host plants, pepper—Capsicum annuum L.—and barley—Hordeum vulgare L.—respectively. Tests on anti-feeding activity were carried out with newly hatched larvae of the sixth stage of S. littoralis and wingless adult aphids. The upper surface of leaf disks (1.0 cm^2) of the pepper (Capsicum annuum L.) were treated with 10 μl of a solution (10 mg/ml for extracts and 5 mg/ml for pure products). Each test consisted of 5 Petri dishes with two (S. littoralis) larvae per dish or twenty boxes (2×2 cm) with ten M. persicae or R. padi aphids incubated in a growth chamber under the same conditions described for the breeding of the insects. Once consumed 75% of the surface of the control dishes (S. littoralis) or after 24 h (M. persicae or R. padi) the consumption (% FI) or settlement index (% SI), was calculated respectively. % FI=[1−(T/C)×100], where T and C are the consumption of treated leaves discs and control; % SI=[1−(% T/C %)] where % C and % T are the percentage of aphids settled on the discs of control and treated leaves (Burgueño et al. 2008. J. Chem. Ecol. 34, 766-771). Compounds with an FI/SI>70% were tested in a dose-response experiment to calculate its relative potency (EC50, being the effective dose for a reduction of 50% of feeding).

Botrytis cinerea = assay: Antifungal activity, agar dilution, mycelial growth inhibition; type: cell-based; settings: for inhibition at 500 µg/mL: 0.5 mg/ml, 48 h
Procedure: (§2) Phytopathogenic fungi Fusarium moniliforme (Sheldon) [CECT 2152] F. oxysporum fs. lycopersici ([…] 2715] and F. solani (Mart) [CECT 2199] come from the Spanish Type Culture Collection (CECT). The strain Botrytis cinerea Pers.:Fr. (B05.10) is a donation from the Biochemistry Department at the University of La Laguna (ULL). For their maintenance the strains were grown on solid commercial medium PDA at 25° C. […] To determine the antifungal activity, the agar dilution method was used (Murabayashi et al. 1991. J. Pesticide Sci. 16, 419-427). […] In parallel, controls were prepared with ethanol at a concentration of 2%. […] Colonies grown in petri dishes and incubated for 48 h were digitized and measured using the ImageJ 1.43 software. The percentage of inhibition (% I) was calculated as: % I=(C-T/C)×100, where C is the diameter of control colonies and T of the colonies of the tested samples. The growth inhibition effective dose (EC50) was determined by linear regression analysis (% of inhibition of dose log).

S. littoralis = assay: Anti-feeding activity on leaf disks (% FI); type: in vivo, Spodoptera littoralis; settings: compounds at 50 μg/cm^2
Procedure: as §1, with “Each test consisted of 5 Petri dishes with two (S. littoralis) larvae per dish or twenty boxes (2×2 cm) with ten M. persicae or R. padi aphids incubated in a growth chamber under the same conditions described for the breeding of the insects.” left out, “Compounds with an FI/SI>70% were tested in a dose-response experiment to calculate its relative potency (EC50, being the effective dose for a reduction of 50% of feeding).” left out

F. moniliforme = assay: Antifungal activity, agar dilution, mycelial growth inhibition; type: cell-based, Fusarium moniliforme; settings: Fusarium verticillioides; tested at 0.1 mg/ml (footnote a); 48 h
Procedure: as §2

R. padi = assay: Aphid settlement inhibition on leaf disks (% SI); type: in vivo, Rhopalosiphum padi; settings: compounds at 50 μg/cm^2; 24 h
Procedure: as §1, with “Each test consisted of 5 Petri dishes with two (S. littoralis) larvae per dish or twenty boxes (2×2 cm) with ten M. persicae or R. padi aphids incubated in a growth chamber under the same conditions described for the breeding of the insects.” left out, “Compounds with an FI/SI>70% were tested in a dose-response experiment to calculate its relative potency (EC50, being the effective dose for a reduction of 50% of feeding).” left out

F. solani = assay: Antifungal activity, agar dilution, mycelial growth inhibition; type: cell-based; settings: Fusarium solani
Procedure: as §2

EC50 (Botrytis cinerea; growth inhibition, linear regression, read-out: EC50 (95% CL) Botrytis cinerea) | EC50 (F. solani; growth inhibition, linear regression, read-out: EC50 (95% CL) F. solani) | Compound | M. javanica % paralysed (M. javanica; 0.25 mg/ml) | M. javanica % paralysed (M. javanica; 0.5 mg/ml) | Germination (% C) 72 h (Lactuca sativa; 5 μg/μl) | Growth (% C) Root (Lactuca sativa; 5 μg/μl) | phytotoxic effects on germination and root development (Lactuca sativa) | M. persicae % SI (M. persicae) | EC50 (M. persicae) (M. persicae) | inhibition at 500 µg/mL (Botrytis cinerea) | S. littoralis % FI (S. littoralis) | inhibition at 100 µg/mL (F. moniliforme) | R. padi % SI (R. padi) | inhibition at 100 µg/mL (F. solani; tested at 0.1 mg/ml (footnote a), 48 h) | germination (Lactuca sativa; positive control of germination inhibition, 5 μg/μl)
430 µg/mL (≈ 1690 µM) |  | CCCCCC1=CC(=O)[C@](O)(CCCC)[C@H](O)C1 (stereo in doubt) [Stempholone A, 6-butyl-5,6-dihydroxy-3-pentylcyclohex-2-en-1-one] | 2.8 ± 0.5% | 83.05 ± 3.15% | 97.50 ± 3.54^ % C | 230.26 ± 21.33 % C | absence of phytotoxic effects | 81.42 ± 5.61% | 0.15 (0.06-0.36)* μg/cm^2 | 56.2 ± 1.5% | 41.8 ± 7.9% |  |  |  | 
 | 210 µg/mL (≈ 777 µM) | CCCC[C@@]1(O)C(=O)C=C(CCCC(C)O)C[C@H]1O (stereo in doubt) [Stempholone B, 6-butyl-5,6-dihydroxy-3-(4-hydroxypentyl)cyclohex-2-en-1-one] |  | 1.24 ± 0.9% | 100 ± 0.00 % C | 109.26 ± 9.57 % C | absence of phytotoxic effects | 83.87 ± 6.89% | 0.02 (0.003-0.15)* μg/cm^2 | 11.9 ± 3.67% | 52.9 ± 5.9% | 4.2% | 45.13 ± 9.09% | 49.9% | 
 |  | O=C1C=CC(=O)c2c(O)cccc21 [juglone, reference compound] |  |  |  |  |  |  |  |  |  |  |  |  | lower than 5%
